Experimental data: PubChem BioAssay (NCI)
Several values for one entry are separate records, joined by “and”; a condition that tells them apart may be missing. Equal entries are not always repeated.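 Cultured in 96-well plates, cells were exposed to test compound for 48 hours across five concentrations. GI50: concentration for 50% inhibition of growth. At the TGI there is no net growth.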

Columns and labels:
Test in all cases: growth of human tumour cells (NCI), 48 h
LOX IMVI melanoma = tested on: LOX IMVI melanoma
K-562 leukemia = tested on: K-562 leukemia
UACC-257 melanoma = tested on: UACC-257 melanoma
CAKI-1 renal = tested on: CAKI-1 renal
NCI-H522 lung = tested on: NCI-H522 lung
SR leukemia = tested on: SR leukemia
ACHN renal = tested on: ACHN renal
DU-145 prostate = tested on: DU-145 prostate
SK-MEL-2 melanoma = tested on: SK-MEL-2 melanoma
MALME-3M melanoma = tested on: MALME-3M melanoma

With `CCOC(=O)[C@]1(OC(C)=O)C[C@H](OC(C)=O)[C@@H](C(F)COP(=O)(OCc2ccccc2)OCc2ccccc2)O1` (some centres undefined) the GI50 (LOX IMVI melanoma) was 29.4 µM and > 100 µM, the TGI (LOX IMVI melanoma) was greater than 100 µM and the TGI (K-562 leukemia) was greater than 100 µM. For the same compound, the TGI (UACC-257 melanoma) was greater than 100 µM, the TGI (CAKI-1 renal) was greater than 100 µM and the GI50 (NCI-H522 lung) was 28.3 µM and > 100 µM. The TGI (NCI-H522 lung) was 93.7 µM and > 100 µM, the GI50 (SR leukemia) was 30.2 µM and > 100 µM and the TGI (SR leukemia) was greater than 100 µM. The GI50 (ACHN renal) was 34.8 µM and > 100 µM, the TGI (ACHN renal) was greater than 100 µM and the TGI (DU-145 prostate) was greater than 100 µM. For the same compound, the GI50 (SK-MEL-2 melanoma) was 25 µM and > 100 µM, the TGI (SK-MEL-2 melanoma) was 78.4 µM and > 100 µM and the GI50 (MALME-3M melanoma) was 13.9 µM and > 100 µM. For the same compound, the TGI (MALME-3M melanoma) was 33.8 µM and > 100 µM.

With `O=C(O)CSc1ccc([N+](=O)[O-])cc1[N+](=O)[O-]` the TGI (LOX IMVI melanoma) was greater than 100 µM, the TGI (K-562 leukemia) was greater than 100 µM and the TGI (UACC-257 melanoma) was greater than 100 µM. For the same compound, the TGI (CAKI-1 renal) was greater than 100 µM, the TGI (NCI-H522 lung) was greater than 100 µM and the TGI (SR leukemia) was greater than 100 µM. The TGI (ACHN renal) was greater than 100 µM, the TGI (DU-145 prostate) was greater than 100 µM and the TGI (SK-MEL-2 melanoma) was greater than 100 µM. It also gave a TGI (MALME-3M melanoma) greater than 100 µM.

In the case of `COC1=CC(c2ccc[nH]2)=N/C1=C\c1[nH]c(C)c(C(=O)OC(C)C)c1C`, the GI50 (LOX IMVI melanoma) is reported as 0.0163 µM, the TGI (LOX IMVI melanoma) is reported as 0.0372 µM and the GI50 (K-562 leukemia) is reported as 0.0674 µM. For the same compound, the TGI (K-562 leukemia) was 1.14 µM, the GI50 (UACC-257 melanoma) was 0.0898 µM and the TGI (UACC-257 melanoma) was 1.87 µM. It also gave a GI50 (CAKI-1 renal) of 0.0158 µM, a TGI (CAKI-1 renal) of 0.236 µM and a GI50 (NCI-H522 lung) of 0.0445 µM. The TGI (NCI-H522 lung) was 0.637 µM, the GI50 (SR leukemia) was 0.0257 µM and the TGI (SR leukemia) was 0.291 µM. For the same compound, the GI50 (ACHN renal) was 0.0456 µM, the TGI (ACHN renal) was 1.2 µM and the GI50 (DU-145 prostate) was 0.0609 µM. For the same compound, the TGI (DU-145 prostate) was 6.47 µM, the GI50 (SK-MEL-2 melanoma) was 0.02 µM and the TGI (SK-MEL-2 melanoma) was 0.0525 µM. For the same compound, the GI50 (MALME-3M melanoma) was 0.456 µM and the TGI (MALME-3M melanoma) was 2.19 µM.

With `O=CN/C=C/c1cc(O)ccc1O` the TGI (LOX IMVI melanoma) was 28.1 µM, the TGI (K-562 leukemia) was 52.9 µM and the TGI (UACC-257 melanoma) was 27.8 µM. For the same compound, the TGI (CAKI-1 renal) was 25.8 µM, the TGI (NCI-H522 lung) was 11.2 µM and the TGI (SR leukemia) was 48.2 µM. It also gave a TGI (ACHN renal) of 28.9 µM, a TGI (DU-145 prostate) greater than 100 µM and a TGI (SK-MEL-2 melanoma) greater than 71.9 µM. It also gave a TGI (MALME-3M melanoma) of 35.6 µM.

With `Cc1cc(I)cc(CN(C)CCCCN2CCCCC2)c1O` the GI50 (LOX IMVI melanoma) was 11.5 µM, the TGI (LOX IMVI melanoma) was 24 µM and the GI50 (K-562 leukemia) was 4.03 µM. For the same compound, the TGI (K-562 leukemia) was 17.1 µM, the GI50 (UACC-257 melanoma) was 4.2 µM and the TGI (UACC-257 melanoma) was 15.1 µM. For the same compound, the GI50 (CAKI-1 renal) was 13.6 µM, the TGI (CAKI-1 renal) was 29.5 µM and the GI50 (NCI-H522 lung) was 17.2 µM. For the same compound, the TGI (NCI-H522 lung) was 38.2 µM, the GI50 (SR leukemia) was 4.6 µM and the TGI (SR leukemia) was 17.9 µM. It also gave a GI50 (ACHN renal) of 27.3 µM, a TGI (ACHN renal) of 76.7 µM and a GI50 (DU-145 prostate) of 26.8 µM. The TGI (DU-145 prostate) was greater than 100 µM, the GI50 (SK-MEL-2 melanoma) was 13.8 µM and the TGI (SK-MEL-2 melanoma) was 29.2 µM. The GI50 (MALME-3M melanoma) was 12.7 µM and the TGI (MALME-3M melanoma) was 28 µM.

`COc1ccc2c(c1)/C(=C/c1c(C)nc3sc(C)nn13)C(=O)N2` showed a GI50 (LOX IMVI melanoma) of 5.49 µM, a TGI (LOX IMVI melanoma) greater than 100 µM and a GI50 (K-562 leukemia) of 0.394 µM. It also gave a GI50 (UACC-257 melanoma) greater than 100 µM, a TGI (UACC-257 melanoma) greater than 100 µM and a GI50 (CAKI-1 renal) of 2.31 µM. For the same compound, the TGI (CAKI-1 renal) was greater than 100 µM, the GI50 (NCI-H522 lung) was 0.574 µM and the TGI (NCI-H522 lung) was 5.93 µM. It also gave a GI50 (SR leukemia) of 0.31 µM, a GI50 (ACHN renal) of 6.53 µM and a TGI (ACHN renal) greater than 100 µM. For the same compound, the GI50 (DU-145 prostate) was 6.11 µM, the TGI (DU-145 prostate) was greater than 100 µM and the GI50 (SK-MEL-2 melanoma) was 1.29 µM. The TGI (SK-MEL-2 melanoma) was 4.63 µM and the TGI (MALME-3M melanoma) was greater than 100 µM.

In the case of `CCC(CO)Nc1nc2ccc(Cl)cc2c2ccccc12` (centres undefined), the GI50 (LOX IMVI melanoma) is reported as 6.17 µM, the TGI (LOX IMVI melanoma) is reported as 19.4 µM and the GI50 (K-562 leukemia) is reported as 3.01 µM. The TGI (K-562 leukemia) was 11.5 µM, the GI50 (UACC-257 melanoma) was 15.3 µM and the TGI (UACC-257 melanoma) was 28.6 µM. For the same compound, the GI50 (CAKI-1 renal) was 2.82 µM, the TGI (CAKI-1 renal) was 14.6 µM and the GI50 (NCI-H522 lung) was 8.42 µM. The TGI (NCI-H522 lung) was 21.5 µM, the GI50 (SR leukemia) was 1.57 µM and the TGI (SR leukemia) was 13.5 µM. For the same compound, the GI50 (ACHN renal) was 9.05 µM, the TGI (ACHN renal) was 21.1 µM and the GI50 (DU-145 prostate) was 12.8 µM. The TGI (DU-145 prostate) was 25.4 µM, the GI50 (SK-MEL-2 melanoma) was 14.5 µM and the TGI (SK-MEL-2 melanoma) was 28.4 µM. It also gave a GI50 (MALME-3M melanoma) of 15.7 µM and a TGI (MALME-3M melanoma) of 29.3 µM.

With `COC(=O)[C@@H]1[C@H](O)[C@H](C)[C@H](O)[C@@](C)(O)/C=C\C=C(C)C(=O)Nc2c(C)c(OC(C)=O)c3c(c2O)C(=O)C(C)=C2OCOC(=C23)C(C)=C[C@@](C)(O)[C@H](O)[C@@H](C)[C@H]1OC(C)=O` the TGI (LOX IMVI melanoma) was > 100 µM and 66.9 µM and 41.7 µM, the GI50 (K-562 leukemia) was 32.4 µM and the TGI (K-562 leukemia) was > 100 µM and 66.9 µM. The GI50 (UACC-257 melanoma) was 35.2 µM, the TGI (UACC-257 melanoma) was > 100 µM and 66.9 µM and 93.1 µM and the GI50 (CAKI-1 renal) was greater than 66.9 µM. The TGI (CAKI-1 renal) was greater than 100 µM, the GI50 (NCI-H522 lung) was 17.8 µM and the TGI (NCI-H522 lung) was > 100 µM and 66.9 µM and 43.6 µM. For the same compound, the GI50 (SR leukemia) was 58 µM and 24.3 µM and 28.4 µM, the TGI (SR leukemia) was > 100 µM and 63.8 µM and 89 µM and the GI50 (ACHN renal) was greater than 66.9 µM. The TGI (ACHN renal) was greater than 100 µM, the TGI (DU-145 prostate) was greater than 66.9 µM and the TGI (SK-MEL-2 melanoma) was > 100 µM and 66.9 µM and 96.3 µM. For the same compound, the TGI (MALME-3M melanoma) was > 100 µM and 66.9 µM and 88.6 µM.

For `O=C(Nc1ccccc1OC(F)(F)F)Nc1n[nH]c2ccccc12`, the GI50 (LOX IMVI melanoma) was 22.5 µM, the TGI (LOX IMVI melanoma) was greater than 100 µM and the GI50 (K-562 leukemia) was 47.2 µM. It also gave a TGI (K-562 leukemia) greater than 100 µM, a GI50 (UACC-257 melanoma) of 47.2 µM and a TGI (UACC-257 melanoma) greater than 100 µM. For the same compound, the GI50 (CAKI-1 renal) was 31 µM, the TGI (CAKI-1 renal) was greater than 100 µM and the GI50 (NCI-H522 lung) was 33.9 µM. It also gave a TGI (NCI-H522 lung) greater than 100 µM, a GI50 (SR leukemia) of 0.0489 µM and a TGI (SR leukemia) of 24 µM. For the same compound, the GI50 (ACHN renal) was 31.1 µM, the TGI (ACHN renal) was greater than 100 µM and the GI50 (DU-145 prostate) was 51.7 µM. The TGI (DU-145 prostate) was greater than 100 µM, the GI50 (SK-MEL-2 melanoma) was 81.4 µM and the TGI (SK-MEL-2 melanoma) was greater than 100 µM. The GI50 (MALME-3M melanoma) was 76.8 µM and the TGI (MALME-3M melanoma) was greater than 100 µM.

Work on `CC/C=C\CCC/C=C1/C(=O)C=C[C@@H]1C/C=C\CCCC(=O)OC` yielded a GI50 (LOX IMVI melanoma) of 1.59 µM, a TGI (LOX IMVI melanoma) of 3.28 µM and a GI50 (K-562 leukemia) of 2.46 µM. The TGI (K-562 leukemia) was 11.6 µM, the GI50 (UACC-257 melanoma) was 7.55 µM and the TGI (UACC-257 melanoma) was 20.5 µM. The GI50 (CAKI-1 renal) was 4.12 µM, the TGI (CAKI-1 renal) was 13.5 µM and the GI50 (NCI-H522 lung) was 1.91 µM. The TGI (NCI-H522 lung) was 3.77 µM, the GI50 (SR leukemia) was 2.73 µM and the TGI (SR leukemia) was 9.22 µM. It also gave a GI50 (ACHN renal) of 2.13 µM, a TGI (ACHN renal) of 4.43 µM and a GI50 (DU-145 prostate) of 8.67 µM. It also gave a TGI (DU-145 prostate) of 21.1 µM, a GI50 (SK-MEL-2 melanoma) of 2.6 µM and a TGI (SK-MEL-2 melanoma) of 7.21 µM. The GI50 (MALME-3M melanoma) was 4.76 µM and the TGI (MALME-3M melanoma) was 16.6 µM.

`Cc1ccc2c(=O)cc(-c3ccc(F)cc3)[nH]c2n1` showed a TGI (LOX IMVI melanoma) greater than 100 µM, a TGI (K-562 leukemia) of 83 µM and a TGI (UACC-257 melanoma) greater than 100 µM. The TGI (CAKI-1 renal) was greater than 100 µM, the TGI (NCI-H522 lung) was 84.7 µM and the TGI (SR leukemia) was 34.4 µM. It also gave a TGI (ACHN renal) greater than 100 µM, a TGI (DU-145 prostate) greater than 100 µM and a TGI (SK-MEL-2 melanoma) greater than 100 µM. The TGI (MALME-3M melanoma) was greater than 100 µM.

`O=C(CC1(O)C(=O)Nc2c(Cl)cc(Cl)cc21)c1ccc(Br)cc1Br` (centres undefined) was tested, and the TGI (LOX IMVI melanoma) was 15 µM, the TGI (K-562 leukemia) was 9 µM and the TGI (UACC-257 melanoma) was 22.9 µM. For the same compound, the TGI (CAKI-1 renal) was 16.2 µM, the TGI (NCI-H522 lung) was 8.05 µM and the TGI (SR leukemia) was greater than 22 µM. It also gave a TGI (ACHN renal) of 27.1 µM, a TGI (DU-145 prostate) of 32.3 µM and a TGI (SK-MEL-2 melanoma) of 28.9 µM. For the same compound, the TGI (MALME-3M melanoma) was 23.7 µM.
